This note sets out measurements from PMC6697720, “Saturation of acyl chains converts cardiolipin from an antagonist to an activator of Toll-like receptor-4” (Cellular and Molecular Life Sciences: CMLS, 2019).

Holding throughout (assay type): cell-based, murine
The test system of experiment [1] is primary BMDM cells. Put plainly: TNF-α and IP-10 secretion in primary BMDMs incubated with CL or LPS alone. As to conditions: overnight. On the procedure:
Bone marrow was isolated from femurs and tibias of 10-week-old C57BL/6 mice killed by cervical dislocation. Briefly, bone marrow was flushed out with a syringe filled with DMEM, pelleted down, and resuspended and homogenized in complete medium (DMEM supplemented with 10% heat-inactivated FBS from South America, 2 mM glutamine, 50 U/mL penicillin, 50 μg/mL streptomycin, and 20% of supernatant taken from L929 cells). The cell suspension generated thereafter was then maintained in petri dishes for 7 days.
Primary BMDM cells were detached from petri dishes and seeded the day before the experiment in 96-well plates at 0.75 × 10^6 cells/mL (200 μL/well).
(§1) After stimulation, supernatants were collected, centrifuged, and assayed for cytokine secretion, while cells were assayed for viability.
TNF-α and IP-10 were quantified in cell supernatants using DuoSet ELISA kits from R&D Systems and human IL-1β using Instant ELISA™ Kit from Invitrogen, according to the manufacturer’s instructions. Absorbance was read with a BioTek Synergy HT Microplate Readers. […]
Primary BMDM cells were incubated overnight with medium (ctrl) or C14:0 CL at the indicated concentrations. TNF-α and IP-10 were measured by ELISA in collected supernatants. […]

In experiment [2] the test system is RAW-Blue cells. In words: NF-κB activation (SEAP, Quanti-Blue) by CL or LPS in RAW-Blue cells. As to conditions: CL alone, overnight. On the procedure:
RAW-Blue™ cells were seeded the day before the experiment at 5 × 10^5 cells/mL in 48-well plates (500 μL/well).
These cells express a secreted embryonic alkaline phosphatase (SEAP) when NF-κB is activated. NF-κB activation was measured by measuring the alkaline phosphatase produced by RAW-Blue™ cells using the Quanti-Blue™ reagent (InvivoGen), according to the manufacturer’s instructions.
(§2) Fig. 3 Saturated but not unsaturated CLs have pro-inflammatory properties. a RAW-Blue™ cells were incubated overnight with the indicated amount of CL or LPS, supernatants were collected, and NF-κB activation quantified via Quanti-Blue™ test and reported here as fold induction as compared to control. Unpaired t test: differences with respect to the control (Ctrl) are not significant if p > 0.05 (no symbol); *p ≤ 0.0007. b Immortalized BMDM cells were incubated overnight with the indicated amount of CL or LPS; supernatants were collected and TNF-α quantified via ELISA assay. c, d Primary human monocytes were incubated overnight with the indicated amount of CL or LPS with or without the NLRP3 inhibitor MCC950, supernatants were collected, and TNF-α and IL-1β were quantified via ELISA assay. Graphs are representative of experiments from six different donors. Unpaired t test: differences with respect to the control (Ctrl) are not significant if p > 0.05 (no symbol); *p ≤ 0.021. Each bar represents the mean + standard deviation of three biological replicates (n = 3). Graphs are representative of at least three independent experiments

The subject of experiment [3] is immortalized BMDMs. Put plainly: TNF-α secretion in immortalized BMDMs (WT or TLR4-KO) incubated with CL or LPS. As to conditions: overnight; for TNF-α secretion: CL alone, immortalized BMDM. Here is the method:
Immortalized BMDM were seeded the day before the experiment at 5 × 10^5 cells/mL in 48-well plates (500 μL/well).
as §1
TNF-α and IP-10 were quantified in cell supernatants using DuoSet ELISA kits from R&D Systems and human IL-1β using Instant ELISA™ Kit from Invitrogen, according to the manufacturer’s instructions. Absorbance was read with a BioTek Synergy HT Microplate Readers.
as §2
Fig. 4 Saturated CLs are TLR4 agonists. a HEK293 cells were transfected with plasmids encoding murine TLR4, MD2, and CD14 (mTLR4), human TLR4, MD2, and CD14 (hTLR4) or with empty pcDNA3.1 plasmid, MD2 and CD14 (w/o TLR) together with a luciferase reporter plasmid dependent on NF-κB activation and a constitutively active reporter vector-encoding renilla luciferase. Two days after transfection, cells were incubated for 6 h with medium alone (Ctrl) or the indicated amount of CLs or LPS. Luciferase and renilla were quantified in cell lysate, normalized and reported here as fold induction as compared to control. Unpaired t test: differences compared to the control are not significant if p > 0.05(no symbol); *p ≤ 0.005. b WT and TLR4-KO iBMDM cells were incubated overnight with medium (c), LPS or C14:0 CL. For each condition, mTNF-α was measured by ELISA assay. Unpaired t test: differences with respect to the control are not significant if p > 0.05(no symbol); *p ≤ 0.0001. Each bar represents the mean + standard deviation of three biological replicates (n = 3). Graphs are representative of at least three independent experiments

In the case of `CCCCCCCCCCCCCC(=O)OC[C@H](COP(=O)(O)OCC(O)COP(=O)(O)OC[C@@H](COC(=O)CCCCCCCCCCCCC)OC(=O)CCCCCCCCCCCCC)OC(=O)CCCCCCCCCCCCC` (stereo partly shown) [C14:0 CL], in experiment [1], the IP-10 secretion entry is listed as “induces” and the TNF-α secretion result was “induces”. For the same compound, the NF-κB activation result in experiment [2] is recorded as “induced”. For the same compound, the TNF-α secretion result in experiment [3] is “induced”. In addition, the “TNF-α secretion in WT iBMDMs” value in experiment [3] (wild-type) is listed as “induced”.

For `CCCCCCCCCCCCCCCCCC(=O)OC[C@H](COP(=O)(O)OCC(O)COP(=O)(O)OC[C@@H](COC(=O)CCCCCCCCCCCCCCCCC)OC(=O)CCCCCCCCCCCCCCCCC)OC(=O)CCCCCCCCCCCCCCCCC` (stereo partly shown) [C18:0 CL], the NF-κB activation entry in experiment [2] is “induced”. Further, in experiment [3], the TNF-α secretion entry was “induced”.
